Earlier results as cited in PubChem BioAssay AID1259409 (Chemical Carcinogenesis Research Information System (CCRIS), 2018).

System: rodent chemically induced tumor inhibition, incidence and multiplicity
Assay: CCRIS tumor inhibitor studies

For `C=C1CC[C@H]2C(C)(C)CCC[C@]2(C)[C@H]1CO`, the “tumour outcome (control, treated, inhibition, significance)” value (Carcinogen: 7,12-DIMETHYLBENZ[A]ANTHRACENE [57-97-6], Dose [Inhibitor]: 85 NMOL/G IN 0.1 ML ACETONE 2X/WK FOR 20 WK 1 HR PRIOR TO EACH PROMOTER DOSE BEGINNING 1 WK POST LAST CARCINOGEN DOSE (S, Route [Inhibitor]: DERMAL, Species: MOUSE, Strain/Sex: ICR/FEMALE, Target Tissue: Type of Lesion: SKIN: PAPILLOMA, Dose [Carcinogen]: 390 NMOL IN 0.1 ML ACETONE ONCE (STUDY DURATION: 21 WK), Promoter: 12-O-TETRADECANOYL-13-ACETATE [16561-29-8]) is listed as 100%, 65%, 35%, not calculated.
For `CC(O)CCC(=O)c1cccnc1` (stereo not drawn), the “tumour outcome (control, treated, inhibition, significance)” value (Carcinogen: 4-(METHYLNITROSAMINO)-1-(3-PYRIDYL)-1-BUTANONE, 64091-91-4, Dose [Inhibitor]: 0, 25 UMOL IN 0.1 ML CORN OIL ONCE 2 HR PRIOR TO CARCINOGEN DOSE (STUDY DURATION: 16 WK), Route [Inhibitor]: GAVAGE, Species: MOUSE, Strain/Sex: STRAIN-A/FEMALE, Target Tissue: Type of Lesion: LUNG: ADENOMA, Dose [Carcinogen]: 10 UMOL IN 0.1 ML SALINE ONCE, Promoter: NONE USED) is listed as 100%, 100%, 0%, not significant.
In the case of `O=C(CCC(O)c1ccccc1)c1ccccc1` (stereo not drawn), the “tumour outcome (control, treated, inhibition, significance)” value (Carcinogen: 4-(METHYLNITROSAMINO)-1-(3-PYRIDYL)-1-BUTANONE, 64091-91-4, Dose [Inhibitor]: 0, 25 UMOL IN 0.1 ML CORN OIL ONCE 2 HR PRIOR TO CARCINOGEN DOSE (STUDY DURATION: 16 WK), Route [Inhibitor]: GAVAGE, Species: MOUSE, Strain/Sex: STRAIN-A/FEMALE, Target Tissue: Type of Lesion: LUNG: TUMOR, Dose [Carcinogen]: 10 UMOL IN 0.1 ML SALINE ONCE, Promoter: NONE USED) is listed as 100%, 100%, 0%, not significant.
In the case of `CC(=O)OCC(=O)[C@@]1(O)CC[C@H]2[C@@H]3CCC4=CC(=O)CC[C@]4(C)[C@H]3C(=O)C[C@@]21C`, the “tumour outcome (control, treated, inhibition, significance)” value (Carcinogen: 1,2-DIMETHYLHYDRAZINE DIHYDROCHLORIDE, 306-37-6, Dose [Inhibitor]: 0, 2.5 MG/KG IN PEANUT OIL ON DAYS 1 AND 3 OF STUDY THEN 1/WK FOR 30 WK (STUDY DURATION: 31 WK), Route [Inhibitor]: SUBCUTANEOUS, Species: RAT, Strain/Sex: SPRAGUE-DAWLEY/MALE, Target Tissue: Type of Lesion: COLON: ADENOCARCINOMA, Dose [Carcinogen]: 9 MG/KG 1/WK FOR 7 WK THEN 19.4 MG/KG 1/WK FOR 13 WK, Promoter: NONE USED) is given as 14/14 (100%), 12/13 (92%), 8%, not significant and the “tumour outcome (control, treated, inhibition, significance)” value (Carcinogen: 1,2-DIMETHYLHYDRAZINE DIHYDROCHLORIDE, 306-37-6, Dose [Inhibitor]: 0, 2.5 MG/KG IN PEANUT OIL ON DAYS 1 AND 3 OF STUDY THEN 1/WK FOR 30 WK (STUDY DURATION: 31 WK), Route [Inhibitor]: SUBCUTANEOUS, Species: RAT, Strain/Sex: SPRAGUE-DAWLEY/MALE, Target Tissue: Type of Lesion: SMALL INTESTINE: ADENOCARCINOMA, Dose [Carcinogen]: 9 MG/KG 1/WK FOR 7 WK THEN 19.4 MG/KG 1/WK FOR 13 WK, Promoter: NONE USED) is given as 13/14 (93%), 10/13 (77%), 17%, not significant.
For `CCNC(=O)\C=C(C)/C=C/C=C(C)/C=C/C1=C(C)CCCC1(C)C`, the “tumour outcome (control, treated, inhibition, significance)” value (Carcinogen: N-BUTYL-N-(4-HYDROXYBUTYL)NITROSAMINE, 3817-11-6, Dose [Inhibitor]: 1.5 MMOL/KG DIET DAILY FOR 153 D STARTING ONE WK AFTER THE FINAL CARCINOGEN DOSE (STUDY DURATION: 210 D), Route [Inhibitor]: ORAL, Species: MOUSE, Strain/Sex: BDF/MALE, Target Tissue: Type of Lesion: URINARY BLADDER: TRANSITIONAL CELL CARCINOMA, Dose [Carcinogen]: 7.5 MG 1/WK FOR 8 WK, Promoter: NONE USED) is given as 35/99 (35%), 19/96 (20%), 43%, p<0.05 and the “tumour outcome (control, treated, inhibition, significance)” value (Carcinogen: N-BUTYL-N-(4-HYDROXYBUTYL)NITROSAMINE, 3817-11-6, Dose [Inhibitor]: 1.5 MMOL/KG IN DIET DAILY FOR 153 D STARTING ONE WK AFTER THE LAST CARCINOGEN DOSE (STUDY DURATION: 210 D), Route [Inhibitor]: ORAL, Species: MOUSE, Strain/Sex: BDF/MALE, Target Tissue: Type of Lesion: URINARY BLADDER: TRANSITIONAL CELL CARCINOMA, Dose [Carcinogen]: 7.5 MG 1/WK FOR 8 WK, Promoter: NONE USED) is given as 35/99 (35%), 19/96 (20%), 43%, p<0.05.
For `C/C(=C\c1ccc(C(=O)O)cc1)c1cc2c(s1)CCCC2(C)C`, the “tumour outcome (control, treated, inhibition, significance)” value (Carcinogen: 7,12-DIMETHYLBENZ[A]ANTHRACENE, 57-97-6, Dose [Inhibitor]: 0.17 NMOL IN 0.2 ML ACETONE 1 HR PRIOR TO EACH PROMOTER DOSE FOR 12 WK (STUDY DURATION: 14 WK), Route [Inhibitor]: DERMAL, Species: MOUSE, Strain/Sex: SENCAR/FEMALE, Target Tissue: Type of Lesion: SKIN: PAPILLOMA, Dose [Carcinogen]: 200 NMOL IN 0.2 ML ACETONE ONCE, Promoter: 12-O-TETRADECANOYLPHORBOL-13-ACETATE, 16561-29-8) is listed as 100%, 100%, 0%, not calculated, the “tumour outcome (control, treated, inhibition, significance)” value (Carcinogen: 7,12-DIMETHYLBENZ[A]ANTHRACENE, 57-97-6, Dose [Inhibitor]: 0.17 NMOL IN 0.2 ML ACETONE 1 HR PRIOR TO EACH PROMOTER DOSE FOR 20 WK (STUDY DURATION: 22 WK), Route [Inhibitor]: DERMAL, Species: MOUSE, Strain/Sex: CD-1/FEMALE, Target Tissue: Type of Lesion: SKIN: PAPILLOMA, Dose [Carcinogen]: 200 NMOL IN 0.2 ML ACETONE ONCE, Promoter: 12-O-TETRADECANOYLPHORBOL-13-ACETATE, 16561-29-8) is listed as 94%, 89%, 5%, not calculated and the “tumour outcome (control, treated, inhibition, significance)” value (Carcinogen: 7,12-DIMETHYLBENZ[A]ANTHRACENE, 57-97-6, Dose [Inhibitor]: 1.7 NMOL IN 0.2 ML ACETONE 1 HR PRIOR TO EACH PROMOTER DOSE FOR 12 WK (STUDY DURATION: 14 WK), Route [Inhibitor]: DERMAL, Species: MOUSE, Strain/Sex: SENCAR/FEMALE, Target Tissue: Type of Lesion: SKIN: PAPILLOMA, Dose [Carcinogen]: 200 NMOL IN 0.2 ML ACETONE ONCE, Promoter: 12-O-TETRADECANOYLPHORBOL-13-ACETATE, 16561-29-8) is listed as 100%, 80%, 20%, not calculated. For the same compound, the “tumour outcome (control, treated, inhibition, significance)” value (Carcinogen: 7,12-DIMETHYLBENZ[A]ANTHRACENE, 57-97-6, Dose [Inhibitor]: 1.7 NMOL IN 0.2 ML ACETONE 1 HR PRIOR TO EACH PROMOTER DOSE FOR 20 WK (STUDY DURATION: 22 WK), Route [Inhibitor]: DERMAL, Species: MOUSE, Strain/Sex: CD-1/FEMALE, Target Tissue: Type of Lesion: SKIN: PAPILLOMA, Dose [Carcinogen]: 200 NMOL IN 0.2 ML ACETONE ONCE, Promoter: 12-O-TETRADECANOYLPHORBOL-13-ACETATE, 16561-29-8) was 94%, 52%, 45%, not calculated, the “tumour outcome (control, treated, inhibition, significance)” value (Carcinogen: 7,12-DIMETHYLBENZ[A]ANTHRACENE, 57-97-6, Dose [Inhibitor]: 17 NMOL IN 0.2 ML ACETONE 1 HR PRIOR TO EACH PROMOTER DOSE FOR 12 WK (STUDY DURATION: 14 WK), Route [Inhibitor]: DERMAL, Species: MOUSE, Strain/Sex: SENCAR/FEMALE, Target Tissue: Type of Lesion: SKIN: PAPILLOMA, Dose [Carcinogen]: 200 NMOL IN 0.2 ML ACETONE ONCE, Promoter: 12-O-TETRADECANOYLPHORBOL-13-ACETATE, 16561-29-8) was 100%, 3%, 97%, not calculated and the “tumour outcome (control, treated, inhibition, significance)” value (Carcinogen: 7,12-DIMETHYLBENZ[A]ANTHRACENE, 57-97-6, Dose [Inhibitor]: 17 NMOL IN 0.2 ML ACETONE 1 HR PRIOR TO EACH PROMOTER DOSE FOR 20 WK (STUDY DURATION: 22 WK), Route [Inhibitor]: DERMAL, Species: MOUSE, Strain/Sex: CD-1/FEMALE, Target Tissue: Type of Lesion: SKIN: PAPILLOMA, Dose [Carcinogen]: 200 NMOL IN 0.2 ML ACETONE ONCE, Promoter: 12-O-TETRADECANOYLPHORBOL-13-ACETATE, 16561-29-8) was 94%, 0%, 100%, not calculated.
